Patent publication US20130296358A1, “3-SPIROCYCLIC PIPERIDINE DERIVATIVES AS GHRELIN RECEPTOR AGONISTS” (priority 2012, published 2013)

Experiments:
[1] = target: T1, human recombinant ghrelin receptor (GHS-R1a) (Homo sapiens, UniProt Q92847); assay: Calcium assay, CHO-K1 cells expressing hGHS-R1a (Fluo-4); type: cell-based; settings: for Emax: CHO-K1, relative to the Emax induced by MK-0677 (defined as 100%), read-out: hGHS-R1a Ca assay Emax/%
T1 construct: host or cells: CHO-K1
Procedure: (§1) Chinese hamster ovary (CHO-K1) cells expressing human recombinant ghrelin receptor (GHS-R1a) were purchased from Euroscreen (ES-410-C) and propagated in UltraCHO medium containing glutamine and supplemented with 1% heat inactivated foetal calf serum (FCS), 100 U/ml penicillin, 100 mg/l streptomycin and 0.8 g/l geneticin. Cells were sub-cultured twice a week with a 1:10 dilution. For passaging, cells were washed with 1× DPBS without calcium and magnesium, trypsinised for 10 min with 0.05% Trypsin/EDTA and resuspended in cell culture medium.
Cells were diluted to achieve 1×10^6 cells/ml, seeded in 384-well black clear bottom CellBind plates at 25000 cells/well (25u1) and incubated overnight at 37° C./5% CO2 Cells were expected to be 85-90% confluent on the day of assay (checked under the microscope) to ensure a high quality assay. Media was manually removed and 40 μl of loading solution containing probenecid and Fluo-4 no wash dye (a calcium indicator, Invitrogen F36206) were added to each well. After 30 min at 37° C. followed by another 30 min at RT, cpds were added to the wells. To generate a dose response up to 30 μM, 10 mM compound stocks in 100% (v/v) DMSO were firstly diluted in 50% (v/v) DMSO. Then, serial dilutions aimed at a full logarithmic dose responses (8 point) were performed in assay buffer [1×HBSS, 20 mM Hepes, 0.1% (w/v) BSA] to give 2.5% (v/v) DMSO and 5× final compound concentrations. The final assay DMSO concentration was 0.5% (v/v). After loading the cells with Fluo-4 containing solution, plates were read on a CeIlLux instrument (Perkin Elmer). A protocol set up to add 10 μl of 5× compound and to read the plate for 60sec after adding the compound at 17th sec was used. Fluorescence excitation took place at 494 nm and emission at 516 nm. EC50 values of agonists were calculated by fitting the percent stimulation over background [(Max-Min)/Min] using the nonlinear logistic function of the Prism 5 software (GraphPad, USA).

rat fundus = assay: Rat fundus contractility assay (EFS-induced contraction of muscle strips); settings: for EC50: increase of EFS-induced contraction, mean of preparations from at least 3 animals; for Emax: relative to the response to ghrelin (100 nM), defined as 100%
Procedure: Male Sprague Dawley rats (180-250 g) were culled by cervical dislocation and the fundus was removed. Each fundus was placed on a Krebs Henseleit (KH) buffer soaked dissection dish and cut along the long curvature to form a flattened sheet that was pinned in each corner. Four adjacent longitudinal strips (10×3 mm) were cut and the mucosa removed by sharp dissection. Each muscle strip was mounted in a 10 ml organ bath containing oxygenated KH at 37° C. Each strip was connected to an isometric force transducer, calibrated initially using a 5 g weight. The signal (g tension) was amplified and responses recorded by a Powerlab data capture system, connected to a computer running Labchart software (version 5.0). Tissues were placed under 1 g tension for an equilibration period of 30 min or until the baseline tension had stabilised. Carbachol (CCh, 100 nM) was then administered to establish the maximum contractile response of each preparation. Tissues were washed thoroughly and left for 30 min to re-equilibrate. Next, the muscle strips underwent electrical field stimulation (EFS). Maximal EFS pulse trains of 12V, 5 Hz, 0.1 msec pulse width, for 2 sec every 60 sec were applied until consistent electrically-stimulated phasic contractions were recorded. The voltage was then reduced in 1V increments until a consistent submaximal (EC50-75) EFS response was observed. Ghrelin (100 nM) was administered and left until a maximum response was obtained. Tissues were then washed thoroughly and left for 30 min. Once the EFS-induced contraction had re-stabilised, cumulative additions (10 nM-10 μM) of each test compound were administered. Individual responses were calculated by determining the peak of the EFS-induced contraction minus the baseline. […] The mean EC50 value for compounds was generated from data obtained on stomach preparations from at least 3 different animals.

[2] = target: T1, human recombinant ghrelin receptor (GHS-R1a); assay: cAMP assay (HTRF), CHO-hGHS-R1a cells; type: cell-based; settings: for Emax: relative to the ghrelin response (defined as 100%)
Procedure: as §1
The Homogeneous Time-Resolved Fluorescence (HTRF) cAMP dynamic 2 kit (Cisbio International, France) was used as follows. CHO-hGHS—R1a or CHO-rGHS—R1a cells were seeded in a volume of 25 μl culture media at 10,000 cells/well (400,000 cells/ml) in Greiner white 384-well high volume plates and incubated overnight (18-24 h) at 37° C./5% CO2. Then, media was removed and 6 μl assay buffer [HBSS, 10 mM Hepes, 0.2% (w/v) BSA, 1.7 mM IBMX, (pH7.4)] were added to the wells. To generate a dose response up to 30 μM, 10 mM compound stocks in 100% (v/v) DMSO were firstly diluted in 50% (v/v) DMSO followed by a further dilution into assay buffer. Then, 4 μl of 2.5× compound (dose response as 9 point log serial dilution in assay buffer from 30 μM as maximum concentration) were added to each well achieving a final DMSO assay concentration of 0.8% (v/v). 0.1 μM forskolin was added as positive control. After 30 min (rGHS—R1a cell line) or 60 min (hGHS—R1a cell line) incubation at 37° C./5% CO2, 5 μl of cAMP-d2 and 5 μl of anti-cAMP antibody-cryptate, (both made in lysis buffer), were added to the plate followed by 1 h incubation at RT. During this time, cAMP produced by the cells competed with cAMP-d2 for the anti-cAMP antibody-cryptate molecule. Then, the plate was read on the Pherastar instrument (BMG, Germany) at two different emission wavelengths ([…]). Increasing levels of endogenous cAMP produced by cells could be followed by a decrease of FRET fluorescent signal and viceversa. Values represented by a change in arbitrary fluorescence ratios (665/620) were converted into cAMP concentrations by using a standard curve, the reagents for which were supplied with the kit. EC50 values of agonists were calculated using the nonlinear logistic function of the Prism 5 software (GraphPad, USA). Emax were expressed as relative values of the ghrelin response, which was defined as 100%.

T1 sequence (Q92847 whole entry): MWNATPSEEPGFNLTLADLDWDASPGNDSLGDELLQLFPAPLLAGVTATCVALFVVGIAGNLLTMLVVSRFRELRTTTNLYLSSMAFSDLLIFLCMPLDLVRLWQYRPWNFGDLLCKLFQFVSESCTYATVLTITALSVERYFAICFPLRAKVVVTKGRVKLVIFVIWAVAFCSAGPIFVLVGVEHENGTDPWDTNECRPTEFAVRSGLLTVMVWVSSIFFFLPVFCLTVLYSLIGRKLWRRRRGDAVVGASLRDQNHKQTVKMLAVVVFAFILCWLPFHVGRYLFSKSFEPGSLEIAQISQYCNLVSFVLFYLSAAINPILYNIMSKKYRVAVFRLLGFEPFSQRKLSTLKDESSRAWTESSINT

| Structure (SMILES) | Emax [1] | EC50 (rat fundus; Rattus norvegicus) | Emax [2] | EC50 (rat fundus) | EC50 ([1]; CHO-K1 cells expressing hGHS-R1a, read-out: hGHS-R1a Ca assay EC50/μM) | EC50 ([2]; CHO-hGHS-R1a cells, 60 min incubation, maximum concentration 30 μM) | Emax (rat fundus; Rattus norvegicus) |
| --- | --- | --- | --- | --- | --- | --- | --- |
| CN1C[C@H](c2ccccc2)[C@]2(CCCN(C(=O)[C@@H](COCc3ccccc3)NC(=O)C(C)(C)N)C2)C1=O (single isomer, unassigned) [Example 1.0(i)] | 97% | 1700 nM | 130% |  |  |  | 104% |
| CN1C[C@@H](c2ccccc2)[C@@]2(CCCN(C(=O)[C@@H](COCc3ccccc3)NC(=O)C(C)(C)N)C2)C1=O (single isomer, unassigned) [Example 1.0(ii)] | 100% | 13 nM | 141% |  |  |  | 66% |
| CC(C)N1CC(c2ccccc2)C2(CCCN(C(=O)[C@@H](COCc3ccccc3)NC(=O)C(C)(C)N)C2)C1=O (single isomer, unassigned) [Example 1.5] | 96% |  | 195% | 35 nM |  |  | 80% |
| CN1CC(c2ccc(F)cc2)C2(CCCN(C(=O)[C@@H](Cc3c[nH]c4ccccc34)NC(=O)C(C)(C)N)C2)C1=O (single isomer, unassigned) [Example 1.11] | 102% | 24 nM | 289% |  |  |  | 99% |
| CC(C)N1CC(c2ccc(F)cc2)C2(CCCN(C(=O)[C@@H](Cc3cn(C)c4ccccc34)NC(=O)C(C)(C)N)C2)C1=O (single isomer, unassigned) [Example 1.15] | 112% | 36 nM | 331% |  |  |  | 123% |
| CCC(N)(CC)C(=O)N[C@H](COCc1ccccc1)C(=O)N1CCC[C@@]2(C1)C(=O)N(C)C[C@H]2c1ccccc1 [Example 1.71, 2-amino-N-((R)-3-(benzyloxy)-1-((4S,5R)-2-methyl-1-oxo-4-phenyl-2,7-diazaspiro[4.5]decan-7-yl)-1-oxopropan-2-yl)-2-ethylbutanamide] | 108% |  | 111% |  |  |  |  |
| Cc1ccc(COC[C@@H](NC(=O)C(C)(C)N)C(=O)N2CCCC3(C2)C(=O)N(C)CC3c2ccc(F)cc2)cc1 (stereo partly drawn) [Example 1.72, 2-amino-N-((2R)-1-(4-(4-fluorophenyl)-2-methyl-1-oxo-2,7-diazaspiro[4.5]decan-7-yl)-3-((4-methylbenzyl)oxy)-1-oxopropan-2-yl)-2-methylpropanamide] | 110% |  | 147% |  |  |  |  |
| CN1CC(c2ccccc2)C2(CCCN(C(=O)[C@@H](COCc3ccccc3)NC(=O)C(C)(N)C(F)(F)F)C2)C1=O (stereo partly drawn) [Example 1.73, 2-amino-N-((2R)-3-(benzyloxy)-1-(2-methyl-1-oxo-4-phenyl-2,7-diazaspiro[4.5]decan-7-yl)-1-oxopropan-2-yl)-3,3,3-trifluoro-2-methylpropanamide] | 79% |  | 1% |  |  |  |  |

Second part, led by results:

| Emax [1] | EC50 (rat fundus; Rattus norvegicus) | Emax [2] | EC50 (rat fundus) | EC50 ([1]; CHO-K1 cells expressing hGHS-R1a, read-out: hGHS-R1a Ca assay EC50/μM) | EC50 ([2]; CHO-hGHS-R1a cells, 60 min incubation, maximum concentration 30 μM) | Structure (SMILES) | Emax (rat fundus; Rattus norvegicus) |
| --- | --- | --- | --- | --- | --- | --- | --- |
| 101% |  | 129% |  | 0.0046 µM | 2.38 µM | CN1CC(c2ccccc2)C2(CCN(C(=O)[C@@H](COCc3ccccc3)NC(=O)C(C)(C)N)C2)C1=O (single isomer, unassigned) [Example 8.0] |  |
| 96% |  | 127% |  |  |  | CN1CC(c2ccccc2)C2(CCCN(C(=O)[C@@H](COCc3ccccc3)NC(=O)C(C)(C)N)CC2)C1=O (single isomer, unassigned) [Example 9.0(iv)] |  |
| 103% |  | 123% |  |  |  | COc1ccc(C2CN(C)C(=O)C23CCCN(C(=O)[C@@H](COCc2ccccc2)NC(=O)C(C)(C)N)C3)cc1 (stereo partly drawn) [Example 1.74, 2-amino-N-((2R)-3-(benzyloxy)-1-(4-(4-methoxyphenyl)-2-methyl-1-oxo-2,7-diazaspiro[4.5]decan-7-yl)-1-oxopropan-2-yl)-2-methylpropanamide] |  |
| 87% |  | 176% |  |  |  | CC(C)(C)CN1CC(c2ccccc2)C2(CCCN(C(=O)[C@@H](COCc3ccccc3)NC(=O)C(C)(C)N)C2)C1=O (stereo partly drawn) [Example 1.75, 2-amino-N-((2R)-3-(benzyloxy)-1-(2-neopentyl-1-oxo-4-phenyl-2,7-diazaspiro[4.5]decan-7-yl)-1-oxopropan-2-yl)-2-methylpropanamide] |  |
